Data on one compound can be found in patent US7405317B2, “Phosphate-bearing prodrugs of sulfonyl hydrazines as hypoxia-selective antineoplastic agents” (priority 2004, dated 2008).

The structures appear in SMILES notation.

Series [1] relates to EMT-6 murine mammary carcinoma. It is filed as in vivo, mice. Conditions: EMT6/BLAB-c Mice; dose VNP40541 85-115 mpk, VNP40551 55-85 mpk. On the procedure: (§1) The anti-tumor effects of aforementioned prodrugs are evaluated in both solid and liquid tumor models, including the B16-F10 murine melanoma, HTB177 human lung carcinoma models, DLD1 human colon carcinoma, EMT-6 murine mammary gland carcinoma, L1210 murine leukemia, lymphoma, prostate cancer, pancreatic cancer, and head-and-neck cancer. The prodrugs are given intravenously, orally, or intraperitoneally at doses from 10 mg/kg to 2000 mg/kg; they are give at different dosing schedules such as 4 times daily, once daily, or once every several days for up to 60 doses. Testing tumor cells were implanted subcutaneously into mice, which were randomized into groups immediately after tumor cell implantation (Day 0). Mice were injected intraperitoneally (ip) with either a bolus injection of 0.1 mL PBS or drug. The treatment was carried out in a designed dosing schedule. Tumor measurement in three dimensions was determined once a week with the formula L×H×W/2, where L, H, and W represent length, height, and width, respectively.
(§2) Efficacy of KS119 was studied in murine tumor model and human xenograft models. EMT-6 murine mammary carcinoma cells (3×10^5 cells/mouse) were implanted subcutaneously into Balb/c mice. H460 human lung carcinoma cells, HT29 human colon carcinoma cells and SHP77 human lung carcinoma cells were established as solid xenografts in nu/nu CD-1 mice and Scid/Beige mice with 7×10^7 cells/mouse, respectively. After implantation, tumors were allowed to grow to a size of 150 to 200 mm^3 before starting treatment with KS119. KS119 was formulated in a solvent containing polyethylene glycol 300 (PEG), ethyl alcohol, citric acid, and ascorbic acid.
(§3) Efficacies of KS119W and KS119 were compared with equivalence molar doses in EMT-6 tumor and H460 tumor models. KS119W was formulated with 0.25M sodium bicarbonate solution. The treatment was started when tumors researched 150 to 200 mm^3, and lasted up to 2 weeks. KS119 at doses of 80 and 100 mg/kg and KS119W at doses of 97.6 and 121.3 mg/kg were daily administrated into mice via ip injection. […] To assess the toxicity of treatment, body weight and peripheral blood cell count were monitored after treatment.
(§4) Combined therapy of KS119W with cytoxan (CTX) was evaluated by using KS119W at dose below the MTD in combination with nontoxic dose of CTX against EMT-6 murine mammary carcinoma and H460 human lung carcinoma in CD-1 nude mice. The tumors were allowed to grow to a size of approximately 200 mm^3. In H460 tumor model, the animals received either with 4 doses 180 mg/kg and 1 dose 240 mg/kg of KS119 or CTX at dose of 100 mg/kg per dose per animal, ip injecting the drugs on 15, 22, 27, 34 and 43 days after the tumor implantation. In the combination studies, CTX was given two hours after dosing KS119W.

The test system of series [2] is H460 human lung carcinoma. It is filed as in vivo, mice. Conditions: H460/Nude Mice; dose VNP40541 80-140 mpk, VNP40551 40-80 mpk. On the procedure:
as §1, §2, §3, §4

In series [3] the test system is CHO-450red (human cytochrome P-450 reductase transfected CHO cells). Briefly: Aerobic/hypoxic cell survival, cytochrome P-450 reductase transfected CHO cells. It is filed as cell-based. Conditions: drug 10 μM. On the procedure:
EMT6 or CHO (parental or human cytochrome P-450 reductase transfected) cells, seeded in glass milk dilution bottles, were gassed for 2 hours through a rubber septum fitted with 13 gauge (inflow) and 18 gauge (outflow) needles with a mixture of 5% CO2, oxygen at various concentrations, with the balance of the mixture made up of nitrogen, to establish various hypoxic conditions. Drugs were then injected without disrupting hypoxia. After two hours, cells were collected and plated in a clonogenic assay to determine the surviving fraction, compared to untreated controls.
For in vitro analysis, KS119W must be converted to KS119OH (1) in an AP-catalyzed reaction shown above in FIG. 2, as the phosphorylated parent drug cannot cross cell membranes. KS119OH is then used in all subsequent in vitro studies shown in this section.
Like KS119, cytochrome P-450 reductase can activate KS1190H under hypoxic conditions.

Consider `C[C@@H](OC(=O)N(N(CCCl)S(C)(=O)=O)S(C)(=O)=O)c1ccc([N+](=O)[O-])c(OP(=O)(O)O)c1` [VNP40541], for which the “Inhibition (%)” value is on record as 58-69% in series [1] and 52-80% in series [2]. Also, the “Surviving fraction at 0.1% oxygen” value in series [3] (0.1% oxygen) stood at 0.001368. In series [3] (air), the “Surviving fraction in air” value came out at 0.9277.
